Measured values taken from patent US7863271B2, “2-aminobenzoxazole carboxamides as 5HT3 modulators” (Albany Molecular Research, Inc., priority 2006, dated 2011).
Counter-ions that a name gives are not always drawn.

Experiments:
5-HT3 [1] = target: T1, 5-HT3 (Homo sapiens, UniProt P46098); test: Compound affinity for the human 5-HT3 receptor (Assay B), SPA radioligand binding with [9-methyl-3H]BRL-43694; set-up: purchased Perkin Elmer
T1 sequence (P46098 24-478): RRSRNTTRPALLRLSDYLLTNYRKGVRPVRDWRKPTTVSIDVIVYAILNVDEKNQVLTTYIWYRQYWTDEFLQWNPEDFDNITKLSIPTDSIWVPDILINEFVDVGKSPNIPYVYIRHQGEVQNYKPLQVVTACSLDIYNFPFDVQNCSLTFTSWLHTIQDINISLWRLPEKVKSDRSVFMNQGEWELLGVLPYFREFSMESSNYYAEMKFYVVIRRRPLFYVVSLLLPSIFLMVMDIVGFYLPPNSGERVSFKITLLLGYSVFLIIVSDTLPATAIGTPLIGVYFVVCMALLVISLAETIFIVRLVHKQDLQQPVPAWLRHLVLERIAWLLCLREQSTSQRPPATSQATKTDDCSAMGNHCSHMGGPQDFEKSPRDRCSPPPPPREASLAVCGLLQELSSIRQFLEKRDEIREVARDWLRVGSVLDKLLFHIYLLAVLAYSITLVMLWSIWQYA
Procedure, shortened: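 Ten competitor concentrations in duplicate; specific binding (total minus nonspecific) fitted for IC50, converted to Ki by Cheng-Prusoff.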

5-HT3 receptors = target: T2, 5-HT3 receptors (Mus musculus, UniProt P23979); test: Bezold-Jarisch assay in vivo: inhibition of serotonin induced bradycardia; settings: read-out: % Inhibition @ dose of test substance (p.o.); for inhibition at 1 mg/kg: 1 mg/kg p.o.; for inhibition at 1 mg/kg / inhibition at 3 mg/kg: 5-HT (0.1 mg/kg IV)-induced bradycardia 60 min later; for inhibition at 3 mg/kg: 3 mg/kg p.o.
T2 construct: from tissue; host or cells: whole animal: male or female CD-1(Crl.) mice
T2 sequence (P23979 24-489): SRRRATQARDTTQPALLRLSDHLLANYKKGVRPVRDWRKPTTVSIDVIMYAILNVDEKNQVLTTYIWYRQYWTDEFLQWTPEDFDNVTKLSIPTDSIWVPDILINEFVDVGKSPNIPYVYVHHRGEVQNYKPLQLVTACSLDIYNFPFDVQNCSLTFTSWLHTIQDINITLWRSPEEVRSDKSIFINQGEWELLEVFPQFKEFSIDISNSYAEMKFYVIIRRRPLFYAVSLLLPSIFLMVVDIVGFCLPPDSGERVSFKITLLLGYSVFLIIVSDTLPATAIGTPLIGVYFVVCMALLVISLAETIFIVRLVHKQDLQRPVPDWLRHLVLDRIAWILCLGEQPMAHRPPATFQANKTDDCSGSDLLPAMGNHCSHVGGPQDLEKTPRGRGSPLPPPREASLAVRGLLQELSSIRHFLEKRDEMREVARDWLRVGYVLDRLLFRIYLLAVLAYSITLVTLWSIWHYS
Method: Bezold-Jarisch Assay in vivo. […] Arch. Int. Pharmacodyn. 277: 235-252, 1985]. Test substances and vehicle [2% Tween 80] were each administered orally (0.3 to 3 mg/kg) to a group of 5 male or female CD-1(Crl.) mice each weighing 24±2 g. A dosing volume of 10 mL/kg was used. Sixty minutes later, 5-HT (0.1 mg/kg IV)-induced bradycardia was recorded in urethane (2225-2500 mg/kg IP, given 10 minutes before 5-HT)-anesthetized animals.
In vivo 5-HT3 Antagonism in the mouse (Bradycardia Reflex)

5-HT3 [2] = target: T1, 5-HT3; test: Compound affinity for the human 5-HT3 receptor (Assay A), [3H]-GR65630 radioligand binding; set-up: host or cells: N1E-155 cell lines (so in the source); settings: annotated (A): Assay A
Method: Compound Affinity for the human 5-HT3 Receptor (Assay A)
Compounds were tested by MDS Pharma Services—Taiwan Ltd., 158 Li-The Road, Peitou, Taipei, Taiwan 112 R.O.C. In order to evaluate the relative affinity of the various compounds for the human 5-HT3 receptor, N1E-155 cell lines were developed to express the target protein. For binding, these cells were homogenized, centrifuged and washed with buffer (20 mM HEPES, 150 mM NaCl, pH 7.4) then suspended in 0.5 mL of buffer and [3H]-GR65630 added at a concentration of 3.5×10^-10 M. An initial single concentration of 10^-7 M of the test compound was then added. Incubation was carried out at room temperature for 60 minutes at 25° C. then was terminated by rapid removal of the incubation medium. Radioactivity was assessed using liquid scintillation spectrophotometry after exposure to scintillation cocktail for at least three hours. […] Ki values were then calculated from the Cheng-Prusoff equation. In all of the above binding studies the non-specific determinant was MDL-72222 (1.0 μM).

5-HT3 [3] = target: T1, 5-HT3; test: 5-HT3 inhibitor screen with potency threshold (not further specified); assay type: binding

Compound | Ki (5-HT3 [1]) [nM] | inhibition at 3 mg/kg (5-HT3 receptors) [%] | other results
CN(C)c1nc2c(C(=O)N[C@@H]3CN4CCC3CC4)cccc2o1 [Example 8, (S)—N-(quinuclidine-8-yl)-2-(dimethylamino)benzoxazole-4-carboxamide Hydrochloride] |  |  | Ki (5-HT3 [1]; Assay B (method B unless otherwise annotated), read-out: 5-HT3 Ki): 18.1 nM; inhibition at 0.3 mg/kg (5-HT3 receptors): 83%
CSc1nc2c(C(=O)N[C@@H]3CN4CCC3CC4)cccc2o1 [Example 14, (S)—N-(quinuclidine-8-yl)-2-(methylthio)benzoxazole-4-carboxamide Hydrochloride] |  |  | Ki (5-HT3 [2]): 2.6 nM
CSc1nc2c(C(=O)N[C@H]3C[C@H]4CCC[C@@H](C3)N4C)cccc2o1 [Example 13, Endo-N-(9-Methyl-9-azabicyclo[3.3.1]non-3-yl)-2-methylthiobenzoxazole-4-carboxamide Hydrochloride] |  |  | Ki (5-HT3 [2]): 4.6 nM
C[C@H]1COCCN1c1nc2c(C(=O)NC3CC4CCCC(C3)N4C)cccc2o1 (stereo partly drawn) [Example 49, Endo-N-(9-Methyl-9-azabicyclo[3.3.1]nonan-3-yl)-2-((S)-3-methylmorpholino)benzoxazole-4-carboxamide Hydrochloride] |  |  | inhibition at 1 mg/kg (5-HT3 receptors): 86%
C[C@H]1COC[C@H](C)N1c1nc2c(C(=O)NC3CC4CCCC(C3)N4C)cccc2o1 (stereo partly drawn) [Example 75, Endo-N-(9-Methyl-9-azabicyclo[3.3.1]nonan-3-yl)-2-((3S,5S)-3,5-dimethylmorpholino)benzoxazole-4-carboxamide Hydrochloride] | 0.59 |  | inhibition at 1 mg/kg (5-HT3 receptors): 98%
C[C@@H]1CNC[C@H](C)N1c1nc2c(C(=O)NC3CC4CCCC(C3)N4C)cccc2o1 (relative stereo) [Example 50, Endo-N-(9-Methyl-9-azabicyclo[3.3.1]nonan-3-yl)-2-((2S*,6R*)-2,6-dimethylpiperazin-1-yl)benzoxazole-4-carboxamide Hydrochloride] | 13.6 | 80 | 
Nc1nc2c(C(=O)NC3CN4CCC3CC4)cccc2o1 [Example 93, (S)—N-(Quinulidin-8-yl)-2-aminobenzoxazole-4-carboxamide Hydrochloride] | 12.1 | 85 | 
C[C@H]1CN(C)CCN1c1nc2c(C(=O)NC3CC4CCCC(C3)N4C)cccc2o1 (stereo partly drawn) [Example 55, Endo-N-(9-Methyl-9-azabicyclo[3.3.1]nonan-3-yl)-2-((S)-2,4-dimethylpiperazin-1-yl)benzoxazole-4-carboxamide Hydrochloride] | 28.8 |  | level of potency established as the threshold for the screen (5-HT3 [3]): has not exhibited the level of potency established as the threshold for the screen
Nc1nc2c(C(=O)NC3CN4CCC3CC4)cc(Cl)cc2o1 (centres unmarked) [Example 103, Hydrochloride] | 5.1 | 97 | 
Nc1nc2c(C(=O)NC3CN4CCC3CC4)cc(F)cc2o1 [Example 116, (S)—N-(Quinulidin-8-yl)-2-amino-6-fluorobenzoxazole-4-carboxamide Hydrochloride] | 9.4 | 97 | 
